# Measured values: article PMC10305115, “Development of a Minimalistic Physiologically Based Pharmacokinetic (mPBPK) Model for the Preclinical Development of Spectinamide Antibiotics” (Pharmaceutics, 2023)
# Where two headings read alike, the source gives them in different places.
# Tests used:
# [1] = Fraction unbound in epithelial lining fluid calculated by Poulin and Theil equation, rat; conditions: epithelial lining fluid (calculated), calculated from fu in plasma and albumin ratio plasma/ELF, read-out: fuELF fraction unbound in epithelial lining fluid
# Method: (§1) For intravenous administration, the bolus dose was assumed to be mixed instantaneously into the venous blood. For subcutaneous administration, the dose was administered as an external compartment, absorbed into the venous compartment via a first-order absorption rate constant and a bioavailability component. For intrapulmonary aerosol administration, we have modified the lung tissue by adding the epithelial lining fluid (ELF) sub-compartment, as shown in Figure 2. The physiological volume of the ELF sub-compartment was obtained from the literature. The dose was administered as an external compartment, absorbed into the ELF compartment via a first-order absorption rate constant and a bioavailability component. The compound was assumed to be bound to the ELF proteins, and only the unbound fraction was distributed to the other sub-compartments of the lungs and ultimately to the systemic circulation. The fraction unbound in ELF was calculated from the fraction unbound in plasma and the albumin ratio between plasma and ELF using the equation described by Poulin and Theil.
# [2] = Plasma protein binding by equilibrium dialysis (RED device), mouse plasma; type: in vitro ADME, BALB/c mice; conditions: BALB/c; Mouse plasma, 0.5 and 5 mg/L, 37 °C, 4 h; read-out: fuPlasma fraction unbound in plasma
# Method: (§2) Plasma protein binding was measured by equilibrium dialysis using a RED device (8 kDa molecular cutoff; Thermo Scientific, Rockford, IL, USA) containing plasma and buffer chambers for dialysis and a base plate. Two concentrations (0.5 and 5 mg/L) of 1599 and 1810 were prepared in mouse plasma from BALB/c mice and rat plasma from Sprague-Dawley rats, and an aliquot of 300 µL was added in the plasma chamber in duplicate. A 500 µL aliquot of PBS was added in the buffer chamber for dialysis. Then, the base plate was covered with sealing tape and incubated at 37 °C at approximately 100 rpm on an orbital shaker for 4 h to achieve equilibrium. After incubation, 50 µL of each sample was pipetted from the plasma and buffer chambers into separate micro-centrifuge tubes. A total of 50 µL of plasma was added to the buffer samples and an equal volume of PBS to the collected plasma samples and vortexed. Samples were processed by protein precipitation and analyzed for bound and unbound drug concentrations by liquid chromatography-tandem mass spectrometry (LC-MS/MS). Ranitidine (0.5 and 5 mg/L) was included as a positive control. The fraction of compound unbound to plasma proteins (fu) was calculated from the measured concentrations in the plasma and buffer chambers using the following equation:(1) fu=1−C(Plasma Chamber)−C(Buffer Chamber)/C(Plasma Chamber)
# plasma proteins = assay: as above; type: in vitro ADME, BALB/c mice; conditions: mouse and rat
# Method: as §2
# [3] = Integrated mouse and rat PBPK model, inter-animal variability; conditions: Intravenous Estimate (%RSE); simultaneous fit of mouse and rat plasma and tissue data
# [4] = cited from earlier work; for AUCinf Liver Observed / AUCinf Lung Observed / AUCinf Observed / AUCinf Spleen Observed: healthy mice; for AUCinf Observed: plasma
# [5] = Minimalistic PBPK model, mouse (fitting and simulation)
# [6] = Pharmacokinetic studies in healthy rats; type: in vivo; conditions: male, Sprague-Dawley, rat, plasma, IV SD 10 mg/kg, generated in this study, read-out: AUCinf Observed
# Method: Urine samples were collected at predetermined time intervals (0–6, 6–10, 10–24, 24–48 h) up to 48 h after dosing, volumes were recorded, and samples were processed by protein precipitation and analyzed by LC-MS/MS. The fraction of drug excreted unchanged (fe) in urine at each time interval and a cumulative fe were calculated.
# An additional single dose intravenous study of spectinamide 1599 with destructive sampling was performed to obtain the tissue PK profiles in rats. In this study, groups of four rats (two male and two female) were euthanized either at 15 min or at 4 h after dosing, and blood, lung, liver, spleen, and kidneys were collected. For tissue samples, the tissues were weighed and homogenized in four volumes of phosphate buffered saline (1× PBS) and stored at −70 °C until LC-MS/MS analysis.
# Sample preparation was performed by protein precipitation using methanol. […]
# An API 4500 triple quadruple mass spectrometer (Applied Biosystems, Foster City, CA, USA) equipped with a turbospray ion source was operated in the positive ion mode. Selected reaction monitoring using precursor→product ion combinations of m/z 487.2→207.1, 418→207.1, and 365.1→333.2 was used for quantification of spectinamides 1599, 1810 and the IS spectinomycin, respectively.
# [7] = Subcutaneous PBPK model predictions vs observed plasma concentrations in Mtb infected mice; type: in vivo, BALB/c mice; conditions: SC dose-ranging and dose-fractionation studies
# [8] = Fraction unbound in epithelial lining fluid calculated by Poulin and Theil equation, mouse; conditions: epithelial lining fluid (calculated), calculated from fu in plasma and albumin ratio plasma/ELF, read-out: fuELF fraction unbound in epithelial lining fluid
# Method: as §1
# [9] = Plasma protein binding by equilibrium dialysis (RED device), rat plasma; type: in vitro ADME, Sprague-Dawley rats; conditions: Sprague-Dawley, 0.5 and 5 mg/L, 37 °C, read-out: fuPlasma fraction unbound in plasma
# Method: as §2
# [10] = Parallel artificial membrane permeability assay (PAMPA); type: in vitro ADME; conditions: passive permeability could not be determined
# in vivo = conditions: mouse
# [11] = Intravenous Estimate (%RSE), model fitted to IV single dose 10 mg/kg plasma and tissue data
smiles,measurement,setting,value
"CN[C@@H]1[C@H](O)[C@H](NC)[C@H]2O[C@]3(O)[C@H](O[C@@H]2[C@H]1O)O[C@H](C)C[C@H]3NC(=O)Cc1ccc(O)cn1 [Spectinamide 1810, 2-(5-hydroxypyridin-2-yl)-N-((2R,4R,4aS,5aR,6S,7S,8R,9S,9aR,10aS)-4a,7,9-trihydroxy-2-methyl-6,8-bis(methylamino)decahydro-2H-benzo[b]pyrano [2,3-e] [1,4]dioxin-4-yl)acetamide]",fraction unbound,[1],0.95
same,fraction unbound at 4 h,[2],0.693
same,plasma protein binding,plasma proteins,low plasma protein binding
same,ω KI→COther inter-animal variability on KI→COthers,[3],0.31 (14.7)
same,dose dependency of disposition,[4]; dose range of 10 to 400 mg/kg in mice,did not suggest any dose dependencies
same,AUCinf Liver Observed,[4]; IV QD5 10 mg/kg,51.2 µg·h/g
same,AUCinf Liver Observed,[4]; IV SD 10 mg/kg,31.6 µg·h/g
same,AUCinf Lung Observed,[4]; IV QD5 10 mg/kg,11.2 µg·h/g
same,AUCinf Lung Observed,[4]; IV SD 10 mg/kg,5.75 µg·h/g
same,AUCinf Observed,[4]; IV QD5 10 mg/kg,9450 ng·h/mL
same,AUCinf Observed,[4]; IV SD 10 mg/kg,7910 ng·h/mL
same,AUCinf Observed,[4]; SC QD5 50 mg/kg,65500 ng·h/mL
same,AUCinf Observed,[4]; SC QD5 200 mg/kg,265000 ng·h/mL
same,AUCinf Observed,[4]; SC SD 46 mg/kg,38600 ng·h/mL
same,AUCinf Observed,[4]; SC SD 50 mg/kg,67900 ng·h/mL
same,AUCinf Observed,[4]; SC SD 200 mg/kg,267000 ng·h/mL
same,AUCinf Spleen Observed,[4]; IV QD5 10 mg/kg,9.45 µg·h/g
same,AUCinf Spleen Observed,[4]; IV SD 10 mg/kg,4.29 µg·h/g
same,KC→IKidney 1st order back flux from cellular sub compartment of the kidney,[5]; [11],0.097 (45.1) 1/h
same,KC→ILiver 1st order back flux from cellular sub compartment of the liver,[5]; [11],0.051 (17.2) 1/h
same,KC→ILung 1st order back flux from cellular sub compartment of the lung,[5]; [11],0.076 (17.6) 1/h
same,KC→ISpleen 1st order back flux from cellular sub compartment of the spleen,[5]; [11],0.013 (120) 1/h
same,KC→Iothers 1st order back flux from cellular sub compartment of the other tissues,[5]; [11],7.0 × 10^−5 (0.00278) 1/h
same,Ka 1st order absorption rate constant,"[5]; Subcutaneous Estimate (%RSE), healthy mice",8.26 (14.5)
same,AUC(0-inf),[6],20800 ng·h/mL
same,difference in pharmacokinetics between healthy and infected mice,[7],no significant difference
same,fraction unbound,[8],0.965
same,fraction unbound at 4 h,[9],0.607
same,PAMPA concentrations in the acceptor compartment,[10],below the limit of detection
same,half-life,in vivo,5 min
same,bioavailability,in vivo; sc,100%
